# Laboratory results from patent publication US20050282818A1, “Ubiquitin ligase inhibitors” (Rigel Pharmaceuticals, Inc., priority 2004, published 2005).
# Where two headings read alike, the source gives them in different places.
# Tests used:
# TRAF6/Uev1A/Ubc13 = biological target: T1, TRAF6/Uev1A/Ubc13 (Homo sapiens, UniProt Q9Y4K3); assay: TRAF6/Uev1A/Ubc13 plate-based ubiquitin ligase assay; format: biochemical
# T1 sequence (Q9Y4K3 1-522): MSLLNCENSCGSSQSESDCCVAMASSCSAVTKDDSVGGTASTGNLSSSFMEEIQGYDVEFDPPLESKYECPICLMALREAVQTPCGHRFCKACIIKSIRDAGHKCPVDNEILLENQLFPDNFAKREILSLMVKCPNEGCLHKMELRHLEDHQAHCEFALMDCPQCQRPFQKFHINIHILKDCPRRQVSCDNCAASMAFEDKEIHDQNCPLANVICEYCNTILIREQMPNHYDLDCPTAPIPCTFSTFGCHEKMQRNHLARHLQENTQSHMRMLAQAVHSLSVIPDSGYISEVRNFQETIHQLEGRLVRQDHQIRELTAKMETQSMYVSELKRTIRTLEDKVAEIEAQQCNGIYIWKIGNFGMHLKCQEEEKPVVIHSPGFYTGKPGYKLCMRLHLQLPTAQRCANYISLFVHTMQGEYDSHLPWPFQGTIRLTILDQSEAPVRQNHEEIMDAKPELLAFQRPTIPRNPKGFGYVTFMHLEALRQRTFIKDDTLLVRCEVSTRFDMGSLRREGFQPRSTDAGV
# Procedure, shortened: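 Ligase activity was read as luminescence from anti-Flag/HRP detection of Flag-ubiquitin bound to casein-blocked Ni-plates alongside His-ubiquitin after a 1 h room-temperature reaction. Buffer: 62.5 mM Tris pH 7.5, 6.25 mM MgCl2, 1.0 mM DTT, 2 μM ATP; E1, Uev1a/Ubc13 and TRAF6 added last to start. IC50s derived across compound concentrations.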
# APC11/APC2 = APC11/APC2 (Homo sapiens, UniProt Q9NYG5+Q9UJX6); assay: APC-11/APC-2 ligase assay (APC auto ubiquitination); format: biochemical; details: APC assay
# Sequence of APC11/APC2 (Q9NYG5 whole entry): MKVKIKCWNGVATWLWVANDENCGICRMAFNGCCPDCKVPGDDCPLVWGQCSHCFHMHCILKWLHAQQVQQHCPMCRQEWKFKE
# Sequence of APC11/APC2 (Q9UJX6 whole entry): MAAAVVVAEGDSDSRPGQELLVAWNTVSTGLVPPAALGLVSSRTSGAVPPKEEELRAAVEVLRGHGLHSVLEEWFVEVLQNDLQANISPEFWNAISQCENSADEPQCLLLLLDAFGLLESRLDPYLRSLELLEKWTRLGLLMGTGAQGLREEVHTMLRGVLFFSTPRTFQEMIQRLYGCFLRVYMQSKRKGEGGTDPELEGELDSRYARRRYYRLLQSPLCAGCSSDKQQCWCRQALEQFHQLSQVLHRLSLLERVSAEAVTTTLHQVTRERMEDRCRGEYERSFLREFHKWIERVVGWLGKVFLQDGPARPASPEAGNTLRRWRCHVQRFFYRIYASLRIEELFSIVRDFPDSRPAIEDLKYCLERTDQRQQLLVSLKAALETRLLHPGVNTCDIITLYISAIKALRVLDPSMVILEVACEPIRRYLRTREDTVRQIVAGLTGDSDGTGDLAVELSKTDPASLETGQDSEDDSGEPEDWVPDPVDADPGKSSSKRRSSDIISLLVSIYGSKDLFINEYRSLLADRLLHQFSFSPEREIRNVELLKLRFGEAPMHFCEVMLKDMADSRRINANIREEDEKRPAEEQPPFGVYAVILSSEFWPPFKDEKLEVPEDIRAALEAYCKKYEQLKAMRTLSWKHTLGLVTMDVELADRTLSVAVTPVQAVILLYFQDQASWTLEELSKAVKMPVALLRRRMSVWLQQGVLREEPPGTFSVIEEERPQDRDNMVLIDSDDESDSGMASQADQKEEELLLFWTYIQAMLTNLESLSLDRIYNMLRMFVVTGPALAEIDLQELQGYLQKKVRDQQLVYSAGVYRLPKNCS
# Procedure: For the assays described below, the TRAF6/Uev1A/UBC13 assay is the biochemical plate-based assay of TRAF6 ligase activity using Ubc13 as the E2 enzyme. The gel-based assay is the biochemical solution-based TRAF6 ligase assay (by SDS-PAGE and Western blot) to confirm the plate-based ELISA assay. The APC assay is an assay which is another E3 ligase (APC2/APC11) biochemical assay.
# E3 (His APC11/APC2— “APC”) auto ubiquitination was measured as described in U.S. patent application Ser. No. 09/826,312 (Publication No. U.S. 2002 0042083 A1), which is incorporated by reference in its entirety. Details of the protocol are described below. Activity in the presence of the compound was determined relative to a parallel control in which only DMSO was added. Values of the IC50 were typically determined using 6 or 8 different concentrations of the compound, although as few as 2 concentrations may be used to approximate the IC50 value.
# Nickel coated 96 well plates (Pierce 15242) were blocked for 1 hour with 100 μl of blocking buffer at room temperature. The plates were washed 4 times with 225 μl of 1 […]PBS and 80 μl of the reaction buffer were added that contained 100 ng/well of Flag ubiquitin. To this, 10 μl of the test compound diluted in DMSO were added. After the test compound was added, 10 μl of E1 (human), E2 (Ubch5c), and APC in Protein Buffer was added to obtain a final concentration of 5 ng/well of E1, 20 ng/well of E2 and 100 ng/well of APC. The plates were shaken for 10 minutes and incubated at room temperature for 1 hour. After incubation, the plates were washed 4 times with 225 μl of 1×PBS and 100 μl/well of Antibody Mix were added to each well. The plates were incubated at room temperature for another hour after which they were washed 4 times with 225 μl of 1×PBS and 100 μl/well of Lumino substrate were added to each well. The luminescence was measured by using a BMG luminescence microplate reader. The Blocking Buffer (1% Casein in 1×PBS) was stored at 4° C. until use.
# The reaction buffer consisted of 62.5 mM Tris pH 7.6 (Trizma Base—Sigma T 8524), 3 mM MgCl2 (Magnesium Chloride—Sigma M 2393), 1 mM DTT (Sigma D 9779), 2.5 mM ATP (Roche Boehringer Mann Corp. 635 316), 100 ng/well of Flag ubiquitin, 0.1% BSA (Sigma A 7906), and 0.05% Tween 20 (Sigma P 7949).
# The Protein Buffer consisted of 20 mM Tris pH 7.6, 10% glycerol (Sigma G 5516) and 1 mM DTT.
# The antibody mix consisted of 0.25% BSA (Sigma A 7906) in 1×PBS, 1/50,000 anti Flag (Sigma F 3165), 1/100,000 of anti Mouse IgG HRP (Jackson Imrunoresearch #115 035 146).
# The substrate mix consisted of SuperSignal Substrate from Pierce (catalog number 37070ZZ) and was prepared by mixing 100 ml of the peroxide solution, 100 ml of the enhancer solution and 100 ml of Milli Q® water.
# [1] = system: ICAM-1 expression in A549 cells; assay: ICAM assay (IL-1 induced ICAM-1/CD54 expression in A549 cells); format: cell-based, human
# Text: The expression of intercellular adhesion molecule (ICAM)-1 in endothelial cells is pivotal in supporting lymphocyte migration across the vascular endothelium. TNF/IL-1 induces the NF-kB pathway in which NF-kB acts as a transcription factor and activation of NF-kB induces ICAM expression. IkB inhibits NF-KB by binding to it and retaining NF-kB in the cytoplasm. Upon cytokine stimulation, several signaling molecule including TRAF6, IKKs, and TAK1 are activated which lead to the phosphorylation of IkB. Phosphorylated IkB is then ubiquitinated by the SCF complex and degraded by proteasome, thereby releasing NF-kB to translocate into the nucleus. In the nucleus, NF-kB binds to DNA and activates transcription of various genes that are involved in inflammation, cell survival, and apoptosis. The ICAM assay is a primary assay for HTS as well as a cell based assay for TRAF6 inhibitors.
# The following materials are used 96-well plates; F12K complete medium that includes 10% FBS and 1% P/S (penicillin/streptomycin); 1×PBS; 5 ug/ml IL-1, Human CD54 (CALTAG Laboratory, Cat#MHCD5400-4); anti-mouse-IgG (Jackson Lab, Cat#115-035 146); and A549 cells.
# Procedure. 10,000 A549 cells/well were seeded in 100 μl F12K complete medium in a 96-well white plate. The seeded plate was incubate at 37° C. incubator in 5% CO2 overnight. After the overnight incubation, 4 μl of diluted test compound was added and incubated for 1 hour at 37° C. After the 1 hour incubation, 4 μl of 25 ng/ml IL-1 was added to each well and the cells were stimulated at 37° C. for 4 hours.
# After stimulation, the cells were stained with CD54 (1:1000 diluted with medium) and anti-mouse IgG (1:1100 diluted with medium) for 1 hour. Subsequently, the medium was removed and each well was washed with 200 μl of PBS three times. Detection of activity was performed by addition of 100 μl/well of lumino substrate.
# H1299 cells = assay: Cell proliferation PAD assay, H1299; format: cell-based; details: 48 hours
# Procedure, shortened: (§1)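 Proliferation was scored by DAPI imaging of fixed cells, counting live, apoptotic and dead cells, after 48 h compound exposure at 37 °C, 5% CO2. Compound, dosed in duplicate 24 h post-plating (2,000 cells/well), came from 6.3-fold dilutions of a 10 mM stock diluted 500-fold.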
# A549 cells = assay: Cell proliferation PAD assay, A549; format: cell-based; details: 48 hours
# Procedure, shortened: as §1
# [2] = Homo sapiens, NCI-H1299, 6pt, read-out: H1299 6pt
# [3] = Homo sapiens, 6pt, read-out: A549 6pt
# [4] = Homo sapiens, NCI-H1299, 3pt, read-out: H1299 3pt
# [5] = Homo sapiens, 3pt, read-out: A549 3pt
SMILES,IC50 (TRAF6/Uev1A/Ubc13) [µM],IC50 (APC11/APC2) [µM],"IC50 ([1]; Homo sapiens, A549, ICAM assay) [µM]",also measured
O=[N+]([O-])c1ccc(N2CCN(c3cnccn3)CC2)c2nonc12 [compound 84],1 to 20,1 to 20,–,–
"O=[N+]([O-])c1ccc(Sc2cccc(Cl)c2)c2nonc12 [compound 149, 4-[(3-chlorophenyl)thio]-7-nitro-2,1,3-benzoxadiazole]",1 to 20,1 to 20,–,–
"Cc1ccc(Sc2ccc([N+](=O)[O-])c3nonc23)cc1 [compound 157, 4-[(4-methylphenyl)thio]-7-nitro-2,1,3-benzoxadiazole]",1 to 20,1 to 20,–,–
"N#Cc1cccnc1N1CCN(S(=O)(=O)c2c(Sc3cccc4cccnc34)ccc3nonc23)CC1 [compound 183, 2-(4-{[5-(quinolin-8-ylthio)-2,1,3-benzoxadiazol-4-yl]sulfonyl}piperazin-1-yl)nicotinonitrile]",1 to 20,1 to 20,–,–
"O=[N+]([O-])c1ccc([S+]([O-])c2cccc3cccnc23)c2nonc12 (stereo not shown) [compound 291, 8-[(7-nitro-2,1,3-benzoxadiazol-4-yl)sulfinyl]quinoline]",1 to 20,–,≥ 20,IC50 (H1299 cells; [2]): < 1 µM; IC50 (A549 cells; [3]): < 1 µM
"O=[N+]([O-])c1ccc(-c2cc(F)cc(F)c2)c2nonc12 [compound 308, 4-[(3,5-Difluoro)phenyl]-7-nitro-2,1,3-benzoxadiazole]",≥ 20,1 to 20,1 to 20,–
"O=[N+]([O-])c1ccc(-c2ccc(C(F)(F)F)cc2)c2nonc12 [compound 311, 4-Nitro-7-[4-(trifluoromethyl)phenyl]-2,1,3-benzoxadiazole]",1 to 20,1 to 20,1 to 20,–
"O=[N+]([O-])c1ccc(-c2ccc(C(F)(F)F)cc2C(F)(F)F)c2nonc12 [compound 312, 4-[2,4-Bis(trifluoromethyl)phenyl]-7-nitro-2,1,3-benzoxadiazole]",1 to 20,1 to 20,≥ 20,–
"O=S(=O)(c1ccc(Sc2cccc3ccccc23)c2nonc12)N1CCC2(CC1)OCc1ccccc12 [compound 334, 1′-{(7-[naphth-1-ylthio]-2,1,3-benzoxadiazol-4-yl)}sulfonyl-3H-spiro[2-benzofuran-1,4′-piperidine]]",≥ 20,≥ 20,1 to 20,–
"COC(=O)c1ccc(NS(=O)(=O)c2ccc(Sc3ccc(O)cc3)c3nonc23)cc1 [compound 335, methyl 4-{[(7-{[4-hydroxyphenyl]thio}-2,1,3-benzoxadiazol-4-yl)sulfonyl]amino}benzoate]",≥ 20,≥ 20,≥ 20,–

# More lines, main results first:
IC50 (TRAF6/Uev1A/Ubc13) [µM],IC50 (APC11/APC2) [µM],"IC50 ([1]; Homo sapiens, A549, ICAM assay) [µM]",SMILES,also measured
1 to 20,1 to 20,–,"O=c1[nH]c2ccccc2n1C1CCN(S(=O)(=O)c2ccc(Sc3cccc4cccnc34)c3nonc23)CC1 [compound 190, 1-(1-{[7-(quinolin-8-ylthio)-2,1,3-benzoxadiazol-4-yl]sulfonyl}piperidin-4-yl)-1,3-dihydro-2H-benzimidazol-2-one]",–
1 to 20,–,≥ 20,"O=S(=O)(c1ccc(Sc2cccc3cccnc23)c2nonc12)N1CCN(c2ccccc2)CC1 [compound 217, 8-({7-[(4-phenylpiperazin-1-yl)sulfonyl]-2,1,3-benzoxadiazol-4-yl}thio)quinoline]",IC50 (H1299 cells; [2]): 1 to 20 µM; IC50 (A549 cells; [3]): 1 to 20 µM
≥ 20,–,–,"O=S(=O)(c1ccc(Cl)c2nonc12)N1CCC(Oc2ncccn2)CC1 [compound 225, 4-chloro-7-{[4-(pyrimidin-2-yloxy)pipendin-1-yl]sulfonyl}-2,1,3-benzoxadiazole]","IC50 ([1]; ICAM assay): ≥ 20 µM; IC50 (H1299 cells; 3pt, read-out: H1299 3pt): 1 to 20 µM; IC50 (A549 cells; 3pt, read-out: A549 3pt): 1 to 20 µM"
1 to 20,–,≥ 20,"O=S(=O)(c1c(Cl)ccc2nonc12)N1CCC(Oc2ccccc2C(F)(F)F)CC1 [compound 229, 5-chloro-4-({4-[2-(trifluoromethyl)phenoxy]piperidin-1-yl}sulfonyl)-2,1,3-benzoxadiazole]",IC50 (H1299 cells; [2]): < 1 µM; IC50 (A549 cells; [3]): 1 to 20 µM
≥ 20,–,≥ 20,O=S(=O)(c1c(Cl)ccc2nonc12)N1CCC(Oc2ncccn2)CC1 [compound 234],IC50 (H1299 cells; [4]): 1 to 20 µM; IC50 (A549 cells; [5]): 1 to 20 µM
≥ 20,–,≥ 20,"O=S(=O)(c1c(N2CCC(Oc3ncccn3)CC2)ccc2nonc12)N1CCC(Oc2ncccn2)CC1 [compound 236, 5-[4-(1,3-pyrimidin-2-yloxy)piperidin-1-yl]-4-{[4-(1,3-pyrimidin-2-yloxy)piperidin-1-yl]sulfonyl}-2,1,3-benzoxadiazole]",IC50 (H1299 cells; [4]): 1 to 20 µM; IC50 (A549 cells; [5]): 1 to 20 µM
≥ 20,1 to 20,≥ 20,"O=C1OC2(CCN(S(=O)(=O)c3ccc(Cl)c4nonc34)CC2)c2ccccc21 [compound 332, 1′-{[7-chloro-(2,1,3-benzoxadiazol-4-yl)]sulfonyl}-3H-spiro[2-benzofuran-1,4′-piperidin]-3-one]",–
